Test results as given in patent US11696581B2, “Monoterpenoid/phenylpropanoid-containing compounds and methods of their making and use as seed treatments” (KITTRICH CORPORATION, priority 2016, dated 2023).

Columns and labels:
Format in all cases: in vivo
[1] = system: Western corn rootworm larvae; test: Western corn rootworm survival assay (treated corn seeds); conditions: corn seeds coated 1% weight/weight; 6 neonatal larvae per cup; 7 days at 28° C.; α=0.05; control survival 67.8±3.7%
Experimental: Solo® condiment cups with lids. Germination of seeds was performed by carefully applying 500 μL of de-ionized water in order to fully surround each seed with water at the bottom of the cup. Parafilm® wax was placed over the top of the cup to maintain moisture and encourage germination of the seeds. Cups containing moistened seeds were allowed to germinate in the dark for 3 days before the start of the assay. Six live neonatal Western corn rootworm larvae were carefully applied to the roots of germinated corn seeds for each cup. After applying the larvae to the roots, 30 g of dried soil, sieved with a 600-μm Fisher Brand sieve and moistened with 4.5 mL of water, was applied evenly throughout the cup. Organza was placed over the top of the cup and fastened in place with a cup lid. Cups were incubated at 28° C. in 40-50% humidity for 7 days. Surviving corn rootworm were enumerated and the average percentage survival was reported. A minimum of 10 replicates were performed for each treatment.

corn seeds = test: Germination assays of coated corn seeds; conditions: 3 days dark then one week in soil, root mats and radicals emerged or not
Experimental: Germination of seeds was performed by carefully applying 500 μL of de-ionized water in order to fully surround each seed with water at the bottom of the cup. Parafilm wax was placed over the top of the cup to maintain moisture and encourage germination of the seeds. Cups containing moistened seeds were allowed to germinate in the dark for 3 days before 30 g of soil was introduced into the cup, with 4.5 mL of water added to the soil to moisten it. Seeds were allowed to grow for one week before removing the soil and assessing total germination. Germination was quantified as whether or not root mats and radicals emerged from the moistened seed casing. The total number of seeds in each cup (out of three seeds) that germinated were quantified. Over 4 replicates of this experiment were performed for each monoterpenoid derivative treatment screened.

[2] = system: Western corn rootworm larvae; test: Western corn rootworm repellency assay (treated vs untreated corn sides); conditions: one week; for repellency: larvae isolated from untreated end vs treated end: choice between treated and untreated corn, 30 larvae, control 52% treated side / 48% untreated side; for larval mortality (missing larvae declared dead) in repellency arena: one side treated seeds, control 20% declared dead
Excerpt: Three treated seeds were germinated on one side of a plastic Genpack deli container (32 oz.) 5 days prior to infesting the container with western corn rootworm larvae. On the other side, three untreated seeds were germinated at the same time diagonally across from the treated seeds. Containers were infested by placing 30 rootworm into the middle of the container, on the top of the soil. Rootworm were allowed to choose which side to feed on primarily. Containers infested with western corn rootworm were incubated at 28° C. and 40±10% relative humidity for one week. After one week, containers were removed and soil was mechanically sifted through to quantify the number of living larvae. The total number of larvae present on the treated side vs. the untreated side were averaged from a minimum of three replicates. If repellency was observed (i.e. more rootworm found on the untreated side than the treated side), the experiment was repeated to confirm repellency in subsequent experiments. The number of rootworm missing were also enumerated. Data was averaged from a minimum of three replicates and over 90 larvae used in the total repellency assessment for each compound.

Row | Molecule | larval survival compared to the control [1] | inhibition of germination of corn seedlings (corn seeds) | larvae associated with the treated corn side ([2]; average, choice arena, control approximately 52%) | repellency: larvae isolated from untreated end vs treated end [2] | larval mortality (missing larvae declared dead) in repellency arena [2]
1 | CC(C)=CCCC(C)CC(=O)OC1C(OC(=O)CC(C)CCC=C(C)C)C(OC(=O)CC(C)CCC=C(C)C)C(OC(=O)CC(C)CCC=C(C)C)C(OC(=O)CC(C)CCC=C(C)C)C1OC(=O)CC(C)CCC=C(C)C (stereo not shown) [inositol hexacitronellate, hexacitronelloylinositol] | significantly lower larval survival than the control | most significant inhibitors of germination of corn seedlings | 22% | higher number of larvae to be isolated from the untreated end compared to the treated end | –
2 | CCCCCCCCCCCCCC(=O)OCC=Cc1ccccc1 [cinnamyl myristate] | significantly lower larval survival than the control | – | – | – | higher larval mortality that was statistically significant compared to the control
3 | Cc1ccc(C(C)C)c(OC(=O)CCC(=O)O)c1 [thymyl hydrogen succinate] | significantly lower larval survival than the control | – | – | – | –
4 | C=CCc1ccc(OC(=O)CC(C)CCC=C(C)C)c(OC)c1 (stereo not shown) [eugenyl citronellate] | – | most significant inhibitors of germination of corn seedlings | – | – | –
5 | CC(C)=CCCC(C)CC(=O)OCCOC(=O)CC(C)CCC=C(C)C (stereo not shown) [ethylene dicitronellate, Ethylene dicitronellate] | significantly lower larval survival than the control | – | – | – | higher larval mortality that was statistically significant compared to the control
6 | O=C(/C=C/c1ccccc1)OC1C(OC(=O)/C=C/c2ccccc2)C(OC(=O)/C=C/c2ccccc2)C(OC(=O)/C=C/c2ccccc2)C(OC(=O)/C=C/c2ccccc2)C1OC(=O)/C=C/c1ccccc1 (stereo not shown) [hexacinnamoyl inositol, hexacinnamoylinositol] | – | – | – | higher number of larvae to be isolated from the untreated end compared to the treated end | –
7 | CC(C)=CCCC(C)CCOC(=O)CC(C)CCC=C(C)C (stereo not shown) [citronellyl citronellate] | significantly lower larval survival than the control | – | – | – | –
8 | Cc1ccc(C(C)C)c(OC(=O)/C=C/c2ccccc2)c1 [thymyl cinnamate] | significantly lower larval survival than the control | – | – | higher number of larvae to be isolated from the untreated end compared to the treated end | –
9 | O=C(O)CCC(=O)OC/C=C/c1ccccc1 [cinnamyl hydrogen succinate] | significantly lower larval survival than the control | most significant inhibitors of germination of corn seedlings | – | – | –
10 | eugenyl succinate | significantly lower larval survival than the control | – | – | higher number of larvae to be isolated from the untreated end compared to the treated end | higher larval mortality that was statistically significant compared to the control
